ChEMBL document CHEMBL1201862, “PubChem BioAssay data set” (2004)
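Exposure lasted 48 hours, with cells grown in 96-well plates and compounds tested at five concentrations. At the GI50, growth is halved.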 The source made the active and inactive calls. Rule as the data show it: active = GI50 up to about 1.1 µM and inactive = higher.

What was measured:
Assay in all cases: DTP human tumour cell line panel, 48 h
A549 = tested on: A549
CAKI-1 = tested on: CAKI-1
DU-145 = tested on: DU-145
HCT-116 = tested on: HCT-116
Hs-578T = tested on: Hs-578T
K562 = tested on: K562
LOX IMVI = tested on: LOX IMVI
MDA-MB-435 = tested on: MDA-MB-435
OVCAR-3 = tested on: OVCAR-3
OVCAR-4 = tested on: OVCAR-4
OVCAR-5 = tested on: OVCAR-5
PC-3 = tested on: PC-3
SF-295 = tested on: SF-295
SF-539 = tested on: SF-539
SK-MEL-28 = tested on: SK-MEL-28
SK-OV-3 = tested on: SK-OV-3
SW-620 = tested on: SW-620
TK-10 = tested on: TK-10

Measured: GI50

COc1ccc(SCc2cc(OC)ccc2OC)cc1
inactive: A549 22.4 µM | CAKI-1 31.9 µM | DU-145 44.4 µM | HCT-116 33.8 µM | Hs-578T 29.5 µM | K562 4.24 µM | LOX IMVI 34.8 µM | MDA-MB-435 2.75 µM | OVCAR-3 > 40.6 µM | OVCAR-4 20.8 µM | OVCAR-5 24.5 µM | PC-3 32.8 µM | SF-295 32.2 µM | SF-539 39.2 µM | SK-MEL-28 64.3 µM | SK-OV-3 12 µM | SW-620 10.6 µM | TK-10 > 93.3 µM

CC(=O)OC[C@@]1(C)[C@@H]2[C@@H]3[C@@]4(CO[C@]3(C)C(=O)[C@@]3(O)C[C@H](C)[C@H](OC(C)=O)[C@@H]3[C@H]4OC(C)=O)[C@H](OC(=O)c3ccccc3)C[C@@H]21
inactive: A549 > 100 µM | CAKI-1 > 100 µM | DU-145 > 100 µM | HCT-116 > 100 µM | Hs-578T > 100 µM | K562 > 100 µM | LOX IMVI > 100 µM | MDA-MB-435 > 100 µM | OVCAR-3 > 100 µM | OVCAR-4 > 100 µM | OVCAR-5 > 100 µM | PC-3 > 100 µM | SF-295 > 100 µM | SF-539 > 100 µM | SK-MEL-28 > 100 µM | SK-OV-3 > 100 µM | SW-620 > 100 µM | TK-10 > 100 µM

CC1=C(C(=O)OCCc2ccc([N+](=O)[O-])cc2)C(c2ccccc2C(F)(F)F)C(C(=O)OC(C)C)=C(C)N1 (stereo not drawn)
inactive: A549 2.81 µM | CAKI-1 2.9 µM | DU-145 9.16 µM | HCT-116 2.92 µM | Hs-578T 2.12 µM | K562 2.41 µM | LOX IMVI 2.96 µM | MDA-MB-435 3.84 µM | OVCAR-3 3.48 µM | OVCAR-4 38 µM | OVCAR-5 16.1 µM | PC-3 1.98 µM | SF-295 2.68 µM | SF-539 3.82 µM | SK-MEL-28 4.89 µM | SK-OV-3 3.97 µM | SW-620 3.68 µM | TK-10 3.78 µM

CN1C(=O)C(c2c[nH]c3ccccc23)N(C)C(=O)C1c1c[nH]c2ccccc12 (stereo not drawn)
inactive: A549 > 100 µM | CAKI-1 > 100 µM | DU-145 > 100 µM | HCT-116 > 100 µM | Hs-578T 62.1 µM | K562 > 100 µM | LOX IMVI > 100 µM | MDA-MB-435 > 100 µM | OVCAR-3 > 100 µM | OVCAR-4 > 100 µM | OVCAR-5 > 100 µM | PC-3 > 100 µM | SF-295 > 100 µM | SF-539 86.5 µM | SK-MEL-28 > 100 µM | SK-OV-3 > 100 µM | SW-620 > 100 µM | TK-10 > 100 µM

C[n+]1ccccc1/C=C/c1ccc2c(c1)OCO2
inactive: A549 4.59 µM | CAKI-1 > 10 µM | DU-145 > 10 µM | HCT-116 > 10 µM | Hs-578T > 10 µM | K562 > 10 µM | LOX IMVI > 10 µM | MDA-MB-435 > 10 µM | OVCAR-3 > 10 µM | OVCAR-4 > 10 µM | OVCAR-5 > 10 µM | PC-3 > 10 µM | SF-295 > 10 µM | SF-539 > 10 µM | SK-MEL-28 > 10 µM | SK-OV-3 > 10 µM | SW-620 > 10 µM | TK-10 > 10 µM

CN(C)c1ccc2c(SCC(=O)OCC(=O)[C@@]3(O)CC[C@H]4[C@@H]5CCC6=CC(=O)C=C[C@]6(C)[C@H]5C(=O)C[C@@]43C)c3ccc(N(C)C)cc3nc2c1
inactive: A549 15.2 µM | CAKI-1 23.6 µM | DU-145 11.5 µM | HCT-116 2.82 µM | Hs-578T > 100 µM | K562 2.64 µM | LOX IMVI 26.7 µM | MDA-MB-435 17 µM | OVCAR-3 5.24 µM | OVCAR-4 10.9 µM | OVCAR-5 32.1 µM | PC-3 20.8 µM | SF-295 14 µM | SF-539 6.19 µM | SK-MEL-28 21.6 µM | SK-OV-3 27.4 µM | SW-620 6.19 µM | TK-10 16.3 µM
